Measured values taken from US20230087994A1, “TARGETED BIFUNCTIONAL DEGRADERS” (YALE UNIVERSITY, priority 2019, published 2023).
Several values for one entry are separate records, joined by “and”; a condition that tells them apart may be missing. Equal values may be shown once.

Experiments:
[1] = Pharmacokinetics of DNP-GN3 in nude mice; type: in vivo; conditions: 1 mpk
HepG2 cells = assay: Subcellular localization of α-DNP antibody endocytosed via DNP-GN3 (microscopy); type: cell-based, human; conditions: after 12 hours
[2] = Tolerability of DNP-GN3 and DNP-OH3 in mice (body weight, AST, ALT); type: in vivo
Protocol: FIGS. 93A-93C illustrate that DNP-GN3 and DNP-OH3 are not toxic to mice at all tested concentrations. FIG. 93A: mouse body weight following treatment with DNP-GN3 or DNP-OH3. Statistical differences were analyzed by T test. FIG. 93B: levels of aspartate transaminase (AST) in treated mice. Dashed lines represent the normal range. FIG. 93C: levels of alanine transaminase (ALT) in treated mice. Dashed lines represent the normal range.

[3] = test system: ASGPR on the surface of immortalized human hepatocyte HepG2 cells; assay: DNP-GN3-mediated ternary complex formation: association of fluorescently labeled α-DNP antibody with HepG2 cells in suspension; type: cell-based; conditions: for concentration of DNP-GN3 eliciting half-maximal fluorescence association: bell-shaped response, FIG. 86A
Excerpt: It was investigated whether DNP-GN3 could mediate the formation of a ternary complex between a fluorescently labeled α-DNP antibody and ASGPR on the surface of immortalized human hepatocyte HepG2 cells in suspension. […] The observed bell-shaped response to DNP-GN3 concentration is consistent with the prozone effect commonly observed in systems wherein a ternary complex is formed.

CC(=O)NC1C(OCCOCCOCCNC(=O)CCOCC(COCCC(=O)NCCOCCOCCOC2OC(CO)C(O)C(O)C2NC(C)=O)(COCCC(=O)NCCOCCOCCOC2OC(CO)C(O)C(O)C2NC(C)=O)NC(=O)CNC(=O)COCCOCCOCCNc2ccc([N+](=O)[O-])cc2[N+](=O)[O-])OC(CO)C(O)C1O (centres unmarked) [DNP-GN3]
bioavailability via IP dosing [1]: bioavailable
half-life in serum ([1]; IP): 40.2 min
time at which maximal serum concentration is reached ([1]; IP): 1 h
colocalization of endocytosed α-DNP antibody with early endosome marker EEA1 (HepG2 cells; FIG. 91A): No colocalization
colocalization of α-DNP antibody with lysosome membrane protein LAMP2 (HepG2 cells; FIG. 91B): strong colocalization
toxicity to mice ([2]; all tested concentrations, FIGS. 93A-93C): not toxic
body weight or serum liver enzyme levels, control versus treatment groups ([2]; up to 100 mpk, FIGS. 93A-93C): no significant differences
tolerability ([2]; up to doses of 100 mpk): well-tolerated
concentration of maximal ternary complex formation ([3]; DNP-GN3): 20 nM and 40 nM
concentration of DNP-GN3 eliciting half-maximal fluorescence association ([3]; higher concentration (prozone)): 0.12 µM
concentration of DNP-GN3 eliciting half-maximal fluorescence association ([3]; lower concentration): 0.0074 µM
